Converted amounts (≈) assume the structure as drawn.
Tests used:
[1] = biological target: KRAS G12C (GMPPNP-loaded) and cRAF (Ras-binding domain) interaction (Homo sapiens (Human), UniProt P01116, C118S/C51S/C80L/G12C); test: Inhibition of KRAS G12C and cRAF binding (AlphaScreen); conditions: KRAS G12C loaded with GMPPNP, cRaf RBD, 2 hours preincubation; read-out: Raf-1 RBD K-Ras IC50
How it was run: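 AlphaScreen readout (680 nm excitation, 570 nm emission) of RBD binding after a 60-90 min bead step at room temperature. This step follows 2 h compound exposure of GMPPNP-preloaded KRAS G12C in Hepes pH 7.4 buffer with MgCl2 and 10 μM GMPPNP.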

[2] = Determination of logD (1-octanol / phosphate buffer pH 7.4); assay type: physicochemical; conditions: 1-octanol/phosphate buffer, pH 7.4, pH 7.4, 1-octanol/phosphate buffer; read-out: Log D, pH 7.4
Experimental: Preparation of phosphate buffer saturated with 1-octanol: 10 mL of 100 mM phosphate buffer (pH 7.4) was added to 100 mL of 1-octanol. The mixture was shaken vigorously and left to stand at room temperature overnight.
Preparation of 1-octanol saturated with phosphate buffer: 10 mL of 1-octanol was added to 100 mL of 100 mM phosphate buffer (pH 7.4). The mixture was shaken vigorously and left to stand at room temperature overnight.
149 μL of phosphate buffer saturated with 1-octanol was added into 1st sample tube. 149 μL of 1-octanol saturated with phosphate buffer was added into the 2nd sample tube. The sample tubes were mixed vigorously and shaken for 1 hour at a speed of 800 rpm at room temperature. The sample tubes were subjected to centrifugation at 4000 rpm for 5 minutes at room temperature. Samples of the supernatant were taken from both tubes, diluted with an appropriate LCMS buffer, and analyzed on an LCMS instrument. LogD was calculated according to the following equation.

[3] = Determination of kinetic solubility (pH 7.4); assay type: physicochemical; conditions: phosphate buffer, pH 7.4, aqueous buffer, kinetic from dmso stock, 50 mM phosphate buffer pH 7.4, read-out: Ksol, pH 7.4
Experimental: 490 μL of a 50 mM phosphate buffer (pH 7.4) was added to the sample solution. The mixture was vortexed for at least 2 minutes. The vial was shaken on a Barnstead shaker at 800 rpm at room temperature for 2 hours. The vial was centrifuged at 4000 rpm for 20 minutes. The Mini-UniPrep vial was compressed to prepare a filtrate, which was injected into an HPLC-UV and LC-MS/MS system. Kinetic solubility was calculated by referencing sample peak areas to a standard calibration curve.

KRAS G12C (GMPPNP-loaded) and cRAF (Ras-binding domain) interaction, sequence (P01116 other isoform, or with tags, fused parts or gaps G12C/C51S/C80L/C118S): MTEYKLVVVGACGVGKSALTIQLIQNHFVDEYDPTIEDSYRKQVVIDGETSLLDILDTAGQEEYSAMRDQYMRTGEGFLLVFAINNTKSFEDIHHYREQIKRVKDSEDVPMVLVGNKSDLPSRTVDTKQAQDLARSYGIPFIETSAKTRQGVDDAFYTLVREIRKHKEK

SMILES	IC50 [1] [nM]	logD [2]	solubility kinetic at 2 h [3] [µg/mL]
Cc1noc(/C=C/C(=O)N2CCN(c3nc(OCC45CCCN4CCC5)nc4c(F)c(-c5cccc6cccc(Cl)c56)ncc34)C[C@@H]2CC#N)n1 [Example 5, (S,E)-2-(4-(7-(8-chloronaphthalen-1-yl)-8-fluoro-2-((tetrahydro-1H-pyrrolizin-7a(5H)-yl)methoxy)pyrido[4,3-d]pyrimidin-4-yl)-1-(3-(3-methyl-1,2,4-oxadiazol-5-yl)acryloyl)piperazin-2-yl)acetonitrile]	10 to 100	2.15	161 (≈ 227 µM)
C[C@@H]1CN(C/C=C/C(=O)N2CCN(c3nc(OC[C@@]45CCCN4C[C@H](F)C5)nc4c(F)c(-c5cccc6cccc(F)c56)ncc34)C[C@@H]2CC#N)C[C@@H](C)O1 [Compound 236]	100 to 500	3.59	88 (≈ 117 µM)
CN(C)C/C=C/C(=O)N1CCN(c2nc(OC[C@@]34CCCN3C[C@H](F)C4)nc3c(F)c(-c4cccc(Cl)c4C4CC4)ncc23)C[C@@H]1CC#N [Compound 115, 2-((S)-4-(7-(3-chloro-2-cyclopropylphenyl)-8-fluoro-2-(((2R,7aS)-2-fluorotetrahydro-1H-pyrrolizin-7a(5H)-yl)methoxy)pyrido[4,3-d]pyrimidin-4-yl)-1-((E)-4-(dimethylamino)but-2-enoyl)piperazin-2-yl)acetonitrile]	10 to 100	2.54	114 (≈ 165 µM)
Cc1ncc(F)c(/C=C/C(=O)N2CCN(c3nc(OC[C@@]45CCCN4C[C@H](F)C5)nc4c(F)c(-c5cccc6cccc(Cl)c56)ncc34)C[C@@H]2CC#N)n1 [Compound 157]	10 to 100	4.05	0.55 (≈ 0.729 µM)
CC(C)c1noc(/C=C/C(=O)N2CCN(c3nc(OC[C@@]45CCCN4C[C@H](F)C5)nc4c(F)c(-c5nc(N)cc6cccc(Cl)c56)ncc34)C[C@@H]2CC#N)n1 [Compound 122]	10 to 100	3.43	0.44 (≈ 0.571 µM)
N#CC[C@H]1CN(c2nc(OCC34CCCN3CCC4)nc3c2CCN(c2cccc4cccc(Cl)c24)C3)CCN1C(=O)/C=C/c1nc(C2COC2)no1 [Example 6, (S,E)-2-(4-(7-(8-chloronaphthalen-1-yl)-2-((tetrahydro-1H-pyrrolizin-7a(5H)-yl)methoxy)-5,6,7,8-tetrahydropyrido[3,4-d]pyrimidin-4-yl)-1-(3-(3-(oxetan-3-yl)-1,2,4-oxadiazol-5-yl)acryloyl)piperazin-2-yl)acetonitrile]	10 to 100	2.72	86.4 (≈ 117 µM)
C#Cc1c(F)ccc2cccc(-c3ncc4c(N5CCN(C(=O)/C=C/CN6CC7CC(C6)O7)[C@@H](CC#N)C5)nc(OC[C@@]56CCCN5C[C@H](F)C6)nc4c3F)c12 [Compound 256]	< 10	2.71	101 (≈ 133 µM)
Cc1c(F)ccc2cccc(-c3ncc4c(N5CCN(C(=O)/C=C/CN6CCOCC6)[C@@H](CC#N)C5)nc(OC[C@@]56CCCN5C[C@H](F)C6)nc4c3F)c12 [Compound 246]	10 to 100	2.96	69.5 (≈ 93.9 µM)
N#CC[C@H]1CN(c2nc(OC[C@@]34CCCN3C[C@H](F)C4)nc3c2CCN(c2cccc4cccc(Cl)c24)C3)CCN1C(=O)/C=C/c1nc([C@H]2C[C@@H]2F)no1 [Compound 37]	10 to 100	4.85	0.01 (≈ 0.0132 µM)
N#CC[C@H]1CN(c2nc(OC[C@@]34CCCN3C[C@H](F)C4)nc3c(F)c(-c4cccc5cccc(F)c45)ncc23)CCN1C(=O)/C=C/CN1CC2CC(C1)O2 [Compound 237]	< 10	2.87	67 (≈ 90.7 µM)
Cc1nsc(/C=C/C(=O)N2CCN(c3nc(OC[C@@]45CCCN4C[C@H](F)C5)nc4c3C[C@H](C)[C@@H](c3nc(N)cc(C)c3C(F)(F)F)C4)C[C@@H]2CC#N)n1 [Compound 203]	10 to 100	4.59	0.01 (≈ 0.0132 µM)
C[C@@H]1CN(C/C=C/C(=O)N2CCN(c3nc(OC[C@@]45CCCN4C[C@H](F)C5)nc4c(F)c(-c5cccc6ccc(F)c(F)c56)ncc34)C[C@@H]2CC#N)C[C@H](C)O1 [Compound 239]	10 to 100	2.53	92.6 (≈ 120 µM)
CC(C)c1noc(/C=C/C(=O)N2CCN(c3nc(OCC45CCCN4CCC5)nc4c(F)c(-c5cccc6cccc(Cl)c56)ncc34)C[C@@H]2CC#N)n1 [Compound 120]	100 to 500	3.21	26.5 (≈ 36 µM)
N#CC[C@H]1CN(c2nc(OCC34CCCN3CCC4)nc3c2CCN(c2cccc4cccc(Cl)c24)C3)CCN1C(=O)/C=C/CN1CCS(=O)(=O)CC1 [Compound 169]	10 to 100	2.02	108 (≈ 142 µM)
Cc1cc(/C=C/C(=O)N2CCN(c3nc(OC[C@@]45CCCN4C[C@H](F)C5)nc4c(F)c(-c5cccc(Cl)c5C(F)(F)F)ncc34)C[C@@H]2CC#N)nc(C)n1 [Compound 297]	10 to 100	3.89	29.7 (≈ 38.6 µM)
N#CC[C@H]1CN(c2nc(OCC34CCCN3CCC4)nc3c(F)c(-c4cccc5cccc(Cl)c45)ncc23)CCN1C(=O)/C=C/c1nc(C2CC2)no1 [Compound 24]	100 to 500	2.71	38.5 (≈ 52.4 µM)
N#CC[C@H]1CN(c2nc(OC[C@@]34CCCN3C[C@H](F)C4)nc3c(F)c(-c4cccc(Cl)c4C(F)(F)F)ncc23)CCN1C(=O)/C=C/CN1CC[C@H](F)C1 [Compound 310]	10 to 100	3.13	123 (≈ 161 µM)
N#CC[C@H]1CN(c2nc(OC[C@@]34CCCN3C[C@H](F)C4)nc3c(F)c(-c4cccc5ccc(F)c(F)c45)ncc23)CCN1C(=O)/C=C/CN1CC[C@@H]2COC[C@H]21 [Compound 299]	< 10	2.95	118 (≈ 153 µM)
N#CC[C@H]1CN(c2nc(OCC34CCCN3CCC4)nc3c2CCN(c2cccc4cccc(Cl)c24)C3)CCN1C(=O)/C=C/CN1CCCOCC1 [Compound 163]	< 10	2.44	130 (≈ 180 µM)

Further lines, results first:

IC50 [1] [nM]	logD [2]	solubility kinetic at 2 h [3] [µg/mL]	SMILES
< 10	1.54	123 (≈ 166 µM)	N#CC[C@H]1CN(c2nc(OC[C@@]34CCCN3C[C@H](O)C4)nc3c(F)c(-c4cccc5cccc(Cl)c45)ncc23)CCN1C(=O)/C=C/CN1CCOCC1 [Compound 319]
< 10	3.28	52.4 (≈ 70.1 µM)	N#CC[C@H]1CN(c2nc(OC[C@@]34CCCN3C[C@H](F)C4)nc3c(F)c(-c4cccc(Cl)c4C4CC4)ncc23)CCN1C(=O)/C=C/CN1CCCOCC1 [Compound 112, 2-((S)-1-((E)-4-(1,4-oxazepan-4-yl)but-2-enoyl)-4-(7-(3-chloro-2-cyclopropylphenyl)-8-fluoro-2-(((2R,7aS)-2-fluorotetrahydro-1H-pyrrolizin-7a(5H)-yl)methoxy)pyrido[4,3-d]pyrimidin-4-yl)piperazin-2-yl)acetonitrile]
< 10	1.08	94.8 (≈ 128 µM)	N#CC[C@H]1CN(c2nc(OC[C@@]34CCCN3C[C@H](F)C4)nc3c(F)c(-c4nc(N)cc5cccc(F)c45)ncc23)CCN1C(=O)/C=C/CN1CCOCC1 [Compound 60]
< 10	2.54	96.7 (≈ 125 µM)	N#CC[C@H]1CN(c2nc(OC[C@@]34CCCN3C[C@H](F)C4)nc3c(F)c(-c4cccc(Cl)c4C(F)(F)F)ncc23)CCN1C(=O)/C=C/CN1C[C@@H]2C[C@H]1CO2 [Compound 293]
< 10	3.13	97.3 (≈ 131 µM)	N#CC[C@H]1CN(c2nc(OCC34CCCN3CCC4)nc3c2CCN(c2cccc4cccc(Cl)c24)C3)CCN1C(=O)/C=C/CN1CC2C(C1)C2(F)F (stereo partly drawn) [Compound 193]
< 10	4.05	32.3 (≈ 44.2 µM)	N#CC[C@H]1CN(c2nc(OC[C@@]34CCCN3C[C@H](F)C4)nc3c(F)c(-c4cccc(Cl)c4C4CC4)ncc23)CCN1C(=O)/C=C/[C@H]1CCN1C1CC1 [Compound 314]
< 10	1.44	119 (≈ 158 µM)	N#CC[C@H]1CN(c2nc(OCC34CCCN3CCC4)nc3c(F)c(-c4cccc5ccc(F)c(Cl)c45)ncc23)CCN1C(=O)/C=C/CN1C[C@@H]2C[C@H]1CO2 [Compound 182]
< 10	2.06	95.1 (≈ 131 µM)	N#CC[C@H]1CN(c2nc(OCC34CCCN3CCC4)nc3c2CCN(c2cccc4cccc(Cl)c24)C3)CCN1C(=O)/C=C/CN1C[C@@H]2C[C@H]1CO2 [Compound 62]

From patent publication US20250129103A1, “METHODS FOR TREATMENT OF CANCER” (Frontier Medicines Corporation, priority 2022, published 2025)
